Reference: patent US8026367B2, “(R)-arylalkylamino derivatives and pharmaceutical compositions containing them” (Dompe PHA.R.MA S.p.A., priority 2005, dated 2011)
Structures can show the parent of a compound that is named as a salt.

system: C5a induced PMN migration; assay: Inhibition of C5a induced chemotaxis of human PMNs (microchamber assay); format: cell-based; conditions: compound concentration range between 10^−7 and 10^−8 M, C5a 10^−9 M, 60 min at 37° C.
Method: The compounds of the invention of formula (I) were evaluated in vitro for their ability to inhibit chemotaxis of polymorphonucleate leukocytes (hereinafter referred to as PMNs) and monocytes induced by the fractions of the complement C5a and C5a-desArg. For this purpose, to isolate the PMNs from heparinized human blood, taken from healthy adult volunteers, mononucleates were removed by means of sedimentation on dextran (according to the procedure disclosed by W. J. Ming et al., J. Immunol., 138, 1469, 1987) and red blood cells by a hypotonic solution. The cell vitality was calculated by exclusion with Trypan blue, whilst the ratio of the circulating polymorphonucleates was estimated on the cytocentrifugate after staining with Diff Quick.
Human recombinant fractions C5a and C5a-desArg (Sigma) were used as stimulating agents in the chemotaxis experiments, giving practically identical results.
The lyophilized C5a was dissolved in a volume of HBSS containing 0.2% bovin serum albumin BSA so thus to obtain a stock solution having a concentration of 10^−5 M to be diluted in HBSS to a concentration of 10^−9 M, for the chemotaxis assays.
In the chemotaxis experiments, the PMNs were incubated with the compounds of the invention of formula (I) for 15′ at 37° C. in an atmosphere containing 5% CO2.
The chemotactic activity of the C5a was evaluated on human circulating polymorphonucleates (PMNs) resuspended in HBSS at a concentration of 1.5×10^6 PMNs per mL.
During the chemotaxis assay (according to W. Falket et al., J. Immunol. Methods, 33, 239, 1980) PVP-free filters with a porosity of 5 μm and microchambers suitable for replication were used.
The compounds of the invention in formula (I) were evaluated at a concentration ranging between 10^−7 and 10^−10 M; for this purpose they were added, at the same concentration, both to the lower pores and the upper pores of the microchamber. The wells in the lower part contain the solution of C5a or the simple carrier, those in the upper part contain the suspension of PMNs.
Inhibition of C5a-induced chemotactic activity by the individual compounds of the invention of formula (I) was evaluated by incubating the microchamber for the chemotaxis for 60 min at 37° C. in an atmosphere containing 5% CO2.
By way of example, the inhibition data of the chemotaxis of PMN (concentration range between 10^−7 and 10^−8 M) of some representative compounds of the invention are reported in Table 1.

In order of rising “% inhibition C5a induced PMN migration” value:
1. C[C@@H](NS(=O)(=O)c1ccc(C(=O)O)o1)c1cccc(C(=O)c2ccccc2)c1 [Compound 11, 5-({[(1R)-1-(3-benzoylphenyl)ethyl]amino}sulfonyl)-2-furoic acid]  40 ± 4%
2. CC(C)[C@@H](NS(C)(=O)=O)c1ccc(OS(=O)(=O)C(F)(F)F)cc1 [Compound 12, 4-{(1R)-2-methyl-1-[(methylsulfonyl)amino]propyl}phenyl trifluoromethanesulfonate]  40 ± 5%
3. C[C@@H](NS(=O)(=O)c1cccs1)c1ccc(OS(=O)(=O)C(F)(F)F)cc1 [Compound 7, 4-{(1R)-1-[(thien-2-ylsulfonyl)amino]ethyl}phenyl trifluoromethanesulfonate]  41 ± 8%
4. C[C@@H](Nc1nc(C(F)(F)F)cs1)c1cccc(C(=O)c2ccccc2)c1 [Compound 21]  42 ± 5%
5. C[C@@H](NC(=O)c1cccnc1)c1ccc(OS(=O)(=O)C(F)(F)F)cc1 [Compound 15, 4-{[(1R)-1-(pyridine-3-ylcarbonyl)amino]ethyl]}phenyl trifluoromethanesulfonate]  46 ± 6%
6. C[C@@H](NS(=O)(=O)c1cccnc1)c1ccc(OS(=O)(=O)C(F)(F)F)cc1 [Compound 3, 4-{(1R)-1-[(pyridine-3-ylsulfonyl)amino]ethyl}phenyl trifluoromethanesulfonate]  47 ± 7%
7. C[C@@H](NC(=O)CCCN1CCCC1)c1ccc(OS(=O)(=O)C(F)(F)F)cc1 [Compound 20, 4-{(1R)-1-[(4-pyrrolidin-1-ylbutanoyl)amino]ethyl]}phenyl trifluoromethanesulfonate]  47 ± 1%
8. C[C@@H](NS(C)(=O)=O)c1cccc(C(=O)c2ccccc2)c1 [Compound 4, N-[(1R)-1-(3-benzoylphenyl)ethyl]methanesulfonamide]  48 ± 8%
9. C[C@@H](NC(=O)c1ccccc1)c1cccc(C(=O)c2ccccc2)c1 [Compound 16, N-[(1R)-1-(3-benzoylphenyl)ethyl]benzamide]  49 ± 5 %
10. C[C@@H](NS(=O)(=O)c1ccccc1)c1ccc(OS(=O)(=O)C(F)(F)F)cc1 [Compound 1, 4-{(1R)-1-[(phenylsulfonyl)amino]ethyl}phenyl trifluoromethanesulfonate]  50 ± 1 %
11. C[C@@H](NS(C)(=O)=O)c1cccc(C(=O)c2ccco2)c1 [Compound 6, N-[(1R)-1-[3-(2-furoyl)phenyl]ethyl}methanesulfonamide]  52 ± 7%
12. C[C@@H](NC(=O)CCCN1CCCCC1)c1ccc(OS(=O)(=O)C(F)(F)F)cc1 [Compound 19, N-[(1R)-1-(4-trifluoromethanesulfonyloxy)phenylethyl]-4-piperidin-1-ylbutanamide]  54 ± 17%
13. C[C@@H](NS(=O)(=O)c1cccs1)c1cccc(C(=O)c2ccccc2)c1 [Compound 8, N-[(1R)-1-(3-benzoylphenyl]ethyl}thiophene-2-sulfonamide]  55 ± 14%
14. C[C@@H](NC(=O)C1CCC1)c1cccc(C(=O)c2ccccc2)c1 [Compound 18, N-[(1R)-1-(3-benzoylphenyl)ethyl]cyclobutanecarboxamide]  57 ± 4%
15. C[C@@H](NS(=O)(=O)c1ccccc1)c1cccc(C(=O)c2ccccc2)c1 [Compound 2, N-[(1R)-1-(3-benzoylphenyl)ethyl]benzenesulfonamide]  59 ± 10%
16. C[C@@H](NS(=O)(=O)c1cccs1)c1cccc(C(=O)c2ccco2)c1 [Compound 5, N-[(1R)-1-[3-(2-furoyl)phenyl]ethyl}thiophene-2-sulfonamide]  60 ± 8%
17. CC(C)C(=O)N[C@H](C)c1ccc(OS(=O)(=O)C(F)(F)F)cc1 [Compound 14, 4-[(1R)-1-(isobutyrylamino)ethyl]phenyl trifluoromethanesulfonate]  60 ± 8%
18. C[C@@H](NC(=O)c1ccco1)c1cccc(C(=O)c2ccccc2)c1 [Compound 17, N-[(1R)-1-(3-benzoylphenyl)ethyl]-2-furamide]  63 ± 10%
19. C[C@@H](NS(C)(=O)=O)c1ccc(C(C)(C)S(=O)(=O)c2ccccc2)cc1 [Compound 13, N-((1R)-1-{4-[1-methyl-1-(phenylsulfonyl)ethyl]phenyl}ethyl)methanesulfonamide]  64 ± 8%
20. COC(=O)c1ccc(S(=O)(=O)N[C@H](C)c2cccc(C(=O)c3ccccc3)c2)o1 [Compound 10, methyl 5-({[(1R)-1-(3-benzoylphenyl)ethyl]amino}sulfonyl)-2-furoate]  72 ± 6%

system: not given; assay: not given; conditions: not given

Compared with `C[C@@H](NC(=O)c1cccnc1)c1ccc(OS(=O)(=O)C(F)(F)F)cc1` (as salt: methanesulfonate) [Compound 15, 4-{[(1R)-1-(pyridine-3-ylcarbonyl)amino]ethyl]}phenyl trifluoromethanesulfonate], `C[C@@H](NC(=O)C1CCC1)c1cccc(C(=O)c2ccccc2)c1` [Compound 18, N-[(1R)-1-(3-benzoylphenyl)ethyl]cyclobutanecarboxamide] is lower in melting point: 120 to 122 °C for the first, 90 to 93 °C for the second.

Work on `C[C@@H](NS(=O)(=O)c1cccs1)c1cccc(C(=O)c2ccco2)c1` [Compound 5, N-[(1R)-1-[3-(2-furoyl)phenyl]ethyl}thiophene-2-sulfonamide] yielded a melting point of 105 to 106 °C.
